Values quoted from earlier work in patent US20060127910A1, “Bpl1 as an antifungal target” (priority 2002, published 2006).

Conditions: mice, DOX 2 mg/ml in 5% sucrose solution as drinking water, approx. 5 ml per day

C[C@H]1c2cccc(O)c2C(O)=C2C(=O)[C@]3(O)C(O)=C(C(N)=O)C(=O)[C@@H](N(C)C)[C@@H]3[C@@H](O)[C@@H]21 [DOX, doxycycline]
concentration of DOX in kidney (kidney): > 10 mg/g of kidney
concentration of DOX in liver (liver): > 8 mg/g of liver
concentration of DOX in serum (serum): more than 2 mg/ml of serum
